The source of these data is patent US9258954B2, “Plant having enhanced resistance to environmental stress” (RIKEN, priority 2011, dated 2016).

In this assay the test system is Arabidopsis thaliana L. wild strain (Col-0). As to conditions: 10 mM aqueous acetic acid applied to soil in pot for 9 days; compared to plant without treatment and plant treated with 0.5 mM acetic acid; FIG. 19.

Experimental: hda6 mutant strain (axe 1-5 or sil1) and a parent strain or wild strain thereof were grown in pots at 22° C. under the conditions of 16 hours in the light and 8 hours in the dark for 3 weeks. Thereafter, water supply was terminated and the cultivation was continued at 22° C. and a humidity of 40% under the conditions of 16 hours in the light and 8 hours in the dark for about 2 weeks. In this manner, drought stress was gently given to the strains. After water was supplied again, the strains were grown at 22° C. under the conditions of 16 hours in the light and 8 hours in the dark for 5 days. The number of plants which recovered the growth was counted to determine a survival rate. The experiment was repeated three times using 40 plants per strain per experiment to calculate an average and standard deviation for the survival rate.

Consider `CC(=O)O` [acetic acid], for which the “drought-stress resistance (survival after drought-stress resistance test)” value is given as “remarkably strong drought-stress resistance”.
